Results: patent US20020182717A1, “Method of preparing supported lipid film membranes and use thereof” (Biacore AB, priority 2001, published 2002)

Biological target: T1, rhodopsin (Bos taurus, UniProt P02699)
T1 construct: Gift: Dr. Andreas von Usedom, Institute for Medical Physics and Biophysics, Humboldt University, Berlin
Assay: Assay for rhodopsin functionality (transducin dissociation on illumination, SPR, BIACORE X)
Format: biochemical
Details: 10 μM 9-cis-retinal, after extended illumination and over night incubation
Protocol: In order to judge if the rhodopsin has a native and functional conformation after immobilization and supplementation with lipids as described in steps A and B above, its signaling capacity was assayed. When rhodopsin is activated by light, it transmits its signal by activating transducin. Activated transducin dissociates from the membrane under consumption of GTP (Heyse, S., et al., Biochemistry (1998) 37:507-522).
Measurements of transducin dissociation by activated rhodopsin were performed in a BIACORE X instrument into which an optical fiber had been inserted for illumination of the flow cells. The instrument temperature was set to 20° C. All the operations were performed under safe red light. […]
This solution was injected at 5 μl/min over both the rhodopsin and the reference flow cells in the manual mode. Upon injection, transducin bound readily to both the rhodopsin-POPC surface and the POPC reference surface, but when the injection was finished it dissociated very rapidly from the surface into the mobile phase of running buffer. […] The activation of the receptor was recorded as a surface mass decrease caused by dissociation of the activated transducin from the membrane. […]

T1 sequence (P02699 whole entry): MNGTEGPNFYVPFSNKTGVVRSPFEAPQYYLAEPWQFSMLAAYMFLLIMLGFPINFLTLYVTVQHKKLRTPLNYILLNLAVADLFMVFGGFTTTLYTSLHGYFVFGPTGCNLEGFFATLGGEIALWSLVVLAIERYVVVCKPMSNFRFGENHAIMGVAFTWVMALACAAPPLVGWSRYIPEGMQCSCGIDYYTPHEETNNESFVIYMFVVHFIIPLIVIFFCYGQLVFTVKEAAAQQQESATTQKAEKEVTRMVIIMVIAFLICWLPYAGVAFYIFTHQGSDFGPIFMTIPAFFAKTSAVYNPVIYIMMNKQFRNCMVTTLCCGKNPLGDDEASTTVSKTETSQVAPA

CC1=C(/C=C/C(C)=C\C=C\C(C)=C\C=O)C(C)(C)CCC1 [9-cis-retinal]
signalling capacity of exhausted reconstituted rhodopsin after ligand injection: recovery of the signalling capacity
